Converted amounts (≈) assume the structure as drawn.
Key:
Format in all cases: functional
Bacillus subtilis [1] = assay: Antibacterial activity against Bacillus subtilis at 500 ug/ml after 24 hrs by agar well diffusion method; conditions: read-out: DIZ
Staphylococcus aureus [2] = assay: Antibacterial activity against Staphylococcus aureus ATCC 6538 at 50 ug/ml after 24 hrs by agar well diffusion method; conditions: ATCC 6538, 24 h, read-out: DIZ
Bacillus subtilis [3] = assay: Antibacterial activity against Bacillus subtilis at 200 ug/ml after 24 hrs by agar well diffusion method; conditions: read-out: DIZ
Staphylococcus aureus [4] = assay: Antibacterial activity against Staphylococcus aureus ATCC 6538 at 100 ug/ml after 24 hrs by agar well diffusion method; conditions: ATCC 6538, 24 h, read-out: DIZ
Aspergillus niger [5] = assay: Antifungal activity against Aspergillus niger at 100 ug/ml after 72 hrs by agar well diffusion method; conditions: read-out: DIZ
Fusarium oxysporum [6] = assay: Antifungal activity against Fusarium oxysporum after 72 hrs by agar well diffusion method
Staphylococcus aureus [7] = assay: Antibacterial activity against Staphylococcus aureus ATCC 6538 after 24 hrs by agar well diffusion method; conditions: ATCC 6538, 24 h
Klebsiella pneumoniae [8] = assay: Antibacterial activity against Klebsiella pneumoniae at 100 ug/ml after 24 hrs by agar well diffusion method; conditions: read-out: DIZ
Klebsiella pneumoniae [9] = assay: Antibacterial activity against Klebsiella pneumoniae at 200 ug/ml after 24 hrs by agar well diffusion method; conditions: read-out: DIZ
Aspergillus niger [10] = assay: Antifungal activity against Aspergillus niger after 72 hrs by agar well diffusion method
Rhizoctonia solani [11] = assay: Antifungal activity against Rhizoctonia solani at 500 ug/ml after 72 hrs by agar well diffusion method; conditions: read-out: DIZ
Bacillus subtilis [12] = assay: Antibacterial activity against Bacillus subtilis at 50 ug/ml after 24 hrs by agar well diffusion method; conditions: read-out: DIZ
Escherichia coli [13] = assay: Antibacterial activity against Escherichia coli ATCC 8739 at 500 ug/ml after 24 hrs by agar well diffusion method; conditions: ATCC 8739, 24 h, read-out: DIZ
Aspergillus flavus [14] = assay: Antifungal activity against Aspergillus flavus at 300 ug/ml after 72 hrs by agar well diffusion method; conditions: read-out: DIZ
Aspergillus niger [15] = assay: Antifungal activity against Aspergillus niger at 300 ug/ml after 72 hrs by agar well diffusion method; conditions: read-out: DIZ
Aspergillus niger [16] = assay: Antifungal activity against Aspergillus niger at 500 ug/ml after 72 hrs by agar well diffusion method; conditions: read-out: DIZ
Aspergillus flavus [17] = assay: Antifungal activity against Aspergillus flavus at 100 ug/ml after 72 hrs by agar well diffusion method; conditions: read-out: DIZ
Fusarium oxysporum [18] = assay: Antifungal activity against Fusarium oxysporum at 50 ug/ml after 72 hrs by agar well diffusion method; conditions: read-out: DIZ
Aspergillus flavus [19] = assay: Antifungal activity against Aspergillus flavus at 50 ug/ml after 72 hrs by agar well diffusion method; conditions: read-out: DIZ
Bacillus subtilis [20] = assay: Antibacterial activity against Bacillus subtilis at 300 ug/ml after 24 hrs by agar well diffusion method; conditions: read-out: DIZ
Rhizoctonia solani [21] = assay: Antifungal activity against Rhizoctonia solani at 100 ug/ml after 72 hrs by agar well diffusion method; conditions: read-out: DIZ
Rhizoctonia solani [22] = assay: Antifungal activity against Rhizoctonia solani at 200 ug/ml after 72 hrs by agar well diffusion method; conditions: read-out: DIZ
Aspergillus flavus [23] = assay: Antifungal activity against Aspergillus flavus after 72 hrs by agar well diffusion method
Fusarium oxysporum [24] = assay: Antifungal activity against Fusarium oxysporum at 200 ug/ml after 72 hrs by agar well diffusion method; conditions: read-out: DIZ
Escherichia coli [25] = assay: Antibacterial activity against Escherichia coli ATCC 8739 at 100 ug/ml after 24 hrs by agar well diffusion method; conditions: ATCC 8739, 24 h, read-out: DIZ
Rhizoctonia solani [26] = assay: Antifungal activity against Rhizoctonia solani at 50 ug/ml after 72 hrs by agar well diffusion method; conditions: read-out: DIZ
Klebsiella pneumoniae [27] = assay: Antibacterial activity against Klebsiella pneumoniae at 300 ug/ml after 24 hrs by agar well diffusion method; conditions: read-out: DIZ
Klebsiella pneumoniae [28] = assay: Antibacterial activity against Klebsiella pneumoniae at 50 ug/ml after 24 hrs by agar well diffusion method; conditions: read-out: DIZ
Rhizoctonia solani [29] = assay: Antifungal activity against Rhizoctonia solani after 72 hrs by agar well diffusion method
Escherichia coli [30] = assay: Antibacterial activity against Escherichia coli ATCC 8739 at 300 ug/ml after 24 hrs by agar well diffusion method; conditions: ATCC 8739, 24 h, read-out: DIZ
Aspergillus niger [31] = assay: Antifungal activity against Aspergillus niger at 50 ug/ml after 72 hrs by agar well diffusion method; conditions: read-out: DIZ
Bacillus subtilis [32] = assay: Antibacterial activity against Bacillus subtilis after 24 hrs by agar well diffusion method
Aspergillus flavus [33] = assay: Antifungal activity against Aspergillus flavus at 500 ug/ml after 72 hrs by agar well diffusion method; conditions: read-out: DIZ
Fusarium oxysporum [34] = assay: Antifungal activity against Fusarium oxysporum at 100 ug/ml after 72 hrs by agar well diffusion method; conditions: read-out: DIZ
Fusarium oxysporum [35] = assay: Antifungal activity against Fusarium oxysporum at 500 ug/ml after 72 hrs by agar well diffusion method; conditions: read-out: DIZ
Staphylococcus aureus [36] = assay: Antibacterial activity against Staphylococcus aureus ATCC 6538 at 300 ug/ml after 24 hrs by agar well diffusion method; conditions: ATCC 6538, 24 h, read-out: DIZ
Staphylococcus aureus [37] = assay: Antibacterial activity against Staphylococcus aureus ATCC 6538 at 500 ug/ml after 24 hrs by agar well diffusion method; conditions: ATCC 6538, 24 h, read-out: DIZ
Klebsiella pneumoniae [38] = assay: Antibacterial activity against Klebsiella pneumoniae at 500 ug/ml after 24 hrs by agar well diffusion method; conditions: read-out: DIZ
Bacillus subtilis [39] = assay: Antibacterial activity against Bacillus subtilis at 100 ug/ml after 24 hrs by agar well diffusion method; conditions: read-out: DIZ
Aspergillus niger [40] = assay: Antifungal activity against Aspergillus niger at 200 ug/ml after 72 hrs by agar well diffusion method; conditions: read-out: DIZ
Klebsiella pneumoniae [41] = assay: Antibacterial activity against Klebsiella pneumoniae after 24 hrs by agar well diffusion method
Aspergillus flavus [42] = assay: Antifungal activity against Aspergillus flavus at 200 ug/ml after 72 hrs by agar well diffusion method; conditions: read-out: DIZ
Escherichia coli [43] = assay: Antibacterial activity against Escherichia coli ATCC 8739 at 200 ug/ml after 24 hrs by agar well diffusion method; conditions: ATCC 8739, 24 h, read-out: DIZ
Escherichia coli [44] = assay: Antibacterial activity against Escherichia coli ATCC 8739 after 24 hrs by agar well diffusion method; conditions: ATCC 8739, 24 h
Staphylococcus aureus [45] = assay: Antibacterial activity against Staphylococcus aureus ATCC 6538 at 200 ug/ml after 24 hrs by agar well diffusion method; conditions: ATCC 6538, 24 h, read-out: DIZ
Rhizoctonia solani [46] = assay: Antifungal activity against Rhizoctonia solani at 300 ug/ml after 72 hrs by agar well diffusion method; conditions: read-out: DIZ
Fusarium oxysporum [47] = assay: Antifungal activity against Fusarium oxysporum at 300 ug/ml after 72 hrs by agar well diffusion method; conditions: read-out: DIZ
Escherichia coli [48] = assay: Antibacterial activity against Escherichia coli ATCC 8739 at 50 ug/ml after 24 hrs by agar well diffusion method; conditions: ATCC 8739, 24 h, read-out: DIZ

In the case of CCn1cc(C=C2C(=O)OC(C)(C)OC2=O)c2cc([N+](=O)[O-])ccc21, the zone of inhibition at 500 µg/mL (Bacillus subtilis [1]) is reported as 22 mm, the zone of inhibition at 50 µg/mL (Staphylococcus aureus [2]) is reported as 6 mm and the zone of inhibition at 200 µg/mL (Bacillus subtilis [3]) is reported as 11 mm. The zone of inhibition at 100 µg/mL (Staphylococcus aureus [4]) was 10 mm, the zone of inhibition at 100 µg/mL (Aspergillus niger [5]) was 10 mm and the MIC (Fusarium oxysporum [6]) was 35 µg/mL (≈ 102 µM). The MIC (Staphylococcus aureus [7]) was 25 µg/mL (≈ 72.6 µM), the zone of inhibition at 100 µg/mL (Klebsiella pneumoniae [8]) was 14 mm and the zone of inhibition at 200 µg/mL (Klebsiella pneumoniae [9]) was 18 mm. The MIC (Aspergillus niger [10]) was 40 µg/mL (≈ 116 µM), the zone of inhibition at 500 µg/mL (Rhizoctonia solani [11]) was 29 mm and the zone of inhibition at 50 µg/mL (Bacillus subtilis [12]) was 4 mm. The zone of inhibition at 500 µg/mL (Escherichia coli [13]) was 31 mm, the zone of inhibition at 300 µg/mL (Aspergillus flavus [14]) was 15 mm and the zone of inhibition at 300 µg/mL (Aspergillus niger [15]) was 18 mm. The zone of inhibition at 500 µg/mL (Aspergillus niger [16]) was 25 mm, the zone of inhibition at 100 µg/mL (Aspergillus flavus [17]) was 9 mm and the zone of inhibition at 50 µg/mL (Fusarium oxysporum [18]) was 7 mm. For the same molecule, the zone of inhibition at 50 µg/mL (Aspergillus flavus [19]) was 4 mm, the zone of inhibition at 300 µg/mL (Bacillus subtilis [20]) was 14 mm and the zone of inhibition at 100 µg/mL (Rhizoctonia solani [21]) was 12 mm. The zone of inhibition at 200 µg/mL (Rhizoctonia solani [22]) was 16 mm, the MIC (Aspergillus flavus [23]) was 40 µg/mL (≈ 116 µM) and the zone of inhibition at 200 µg/mL (Fusarium oxysporum [24]) was 16 mm. It also gave a zone of inhibition at 100 µg/mL (Escherichia coli [25]) of 13 mm, a zone of inhibition at 50 µg/mL (Rhizoctonia solani [26]) of 7 mm and a zone of inhibition at 300 µg/mL (Klebsiella pneumoniae [27]) of 23 mm. For the same molecule, the zone of inhibition at 50 µg/mL (Klebsiella pneumoniae [28]) was 9 mm, the MIC (Rhizoctonia solani [29]) was 35 µg/mL (≈ 102 µM) and the zone of inhibition at 300 µg/mL (Escherichia coli [30]) was 20 mm. The zone of inhibition at 50 µg/mL (Aspergillus niger [31]) was 6 mm, the MIC (Bacillus subtilis [32]) was 30 µg/mL (≈ 87.1 µM) and the zone of inhibition at 500 µg/mL (Aspergillus flavus [33]) was 23 mm. It also gave a zone of inhibition at 100 µg/mL (Fusarium oxysporum [34]) of 12 mm, a zone of inhibition at 500 µg/mL (Fusarium oxysporum [35]) of 29 mm and a zone of inhibition at 300 µg/mL (Staphylococcus aureus [36]) of 16 mm. The zone of inhibition at 500 µg/mL (Staphylococcus aureus [37]) was 26 mm, the zone of inhibition at 500 µg/mL (Klebsiella pneumoniae [38]) was 32 mm and the zone of inhibition at 100 µg/mL (Bacillus subtilis [39]) was 9 mm. It also gave a zone of inhibition at 200 µg/mL (Aspergillus niger [40]) of 14 mm, an MIC (Klebsiella pneumoniae [41]) of 15 µg/mL (≈ 43.6 µM) and a zone of inhibition at 200 µg/mL (Aspergillus flavus [42]) of 12 mm. The zone of inhibition at 200 µg/mL (Escherichia coli [43]) was 15 mm, the MIC (Escherichia coli [44]) was 15 µg/mL (≈ 43.6 µM) and the zone of inhibition at 200 µg/mL (Staphylococcus aureus [45]) was 13 mm. For the same molecule, the zone of inhibition at 300 µg/mL (Rhizoctonia solani [46]) was 21 mm, the zone of inhibition at 300 µg/mL (Fusarium oxysporum [47]) was 21 mm and the zone of inhibition at 50 µg/mL (Escherichia coli [48]) was 8 mm.

Source: ChEMBL document CHEMBL2429768, “Eco-friendly synthesis and antimicrobial activities of substituted-5-(1H-indol-3-yl)methylene)-2,2-dimethyl-1,3-dioxane-4,6-dione derivatives” (2013)
